This note sets out measurements from patent US20190352511A1, “LANTHANIDE COMPLEXES COMPRISING DENDRIMERS” (UNIVERSITE D'ORLEANS, priority 2017, published 2019).

In data set [1] the test system is HeLa cells. The experiment in a line: Alamar Blue cytotoxicity test. In kind it is cell-based, human. Conditions: up to 2 μM, 24 h incubation. How it is done: In order to determine the potential toxicity of the described dendrimers, an Alamar Blue test was performed on the HeLa […] carcinoma human cell line (FIG. 6). Different concentrations of chromophores (compound 9) and dendrimers (Ln8-)G3P-(Bodipy1)n (n=16, 32; Ln=Yb^3+, Nd^3+) were tested.

Data set [2] concerns HeLa cells. Briefly: Confocal fluorescence microscopy imaging. The format is cell-based, human. Conditions: 30 min incubation, 1.5 μM, λex 633 nm (laser 6%), λem 650-800 nm. How it is done: HeLa cells after 30 min of incubation with a solution of 1.5 μM compound 9 and dendrimer (Ln8-)G3P-(Bodipy1)n (n=16, 32; Ln=Yb^3+, Nd^3+). The emission of aza-BODIPY (λex: 633 nm, λem: 650-800 nm) was observed under excitation at 633 nm (laser power at 6%). (Top) Yb8-G3P-(Bodipy1)16 (A), Nd8-G3P-(Bodipy1)16 (B), G3P-(Bodipy1)16 (C), Compound 9 (D) and (bottom) Yb8-G3P-(Bodipy1)32 (A), Nd8-G3P-(Bodipy1)32 (B), G3P-(Bodipy1)32 (C), untreated cells (D). The images are taken in the plane of the cellular nucleus. The white arrows indicate the specific localization of the dendrimers in the lysosomes and the yellow arrows indicate the filopods. 63× magnification lens.
Confocal microscopy experiments were performed to confirm the intracellular localization of the dendrimers (FIG. 7). For this purpose, HeLa cells were incubated for 30 min with a concentration solution of 1.5 μM, which corresponds to ˜89-100% of cell viability. The fluorescence of the dendrimers was observed using a 633 nm laser as the excitation source and the emission of aza-BODIPY was collected between 650 and 800 nm with an optical cut of 1 μm in the z axis. The same laser power was used for the different experiments to compare the signal intensity variations between different dendrimers.

Data set [3] is described as follows: Photobleaching / photostability under continuous illumination. The format is physicochemical. Conditions: 10 μM in DMSO, uninterrupted illumination at 670 nm for 3 h, emission at 735 nm. How it is done:
The experiments were carried out for a solution at 10 μM in DMSO and under uninterrupted illumination at 670 nm, the emission being collected at 735 nm.
To test the photostability of the system, the chromophore (compound 9) and the dendrimers (Ln8-)G3P-(Bodipy1)n (n=16, 32; Ln =Yb^3+, Nd^3+) were continuously illuminated with 670 […]. nm and the emission signal was monitored at 735 nm. […] However, the photostability of G3P-(Bodipy1)16 could be improved by the incorporation of Ln^3+. In addition, it turned out to be dependent on the nature of the lanthanides. […] As for the initial chromophore, compound 9 (FIG. 5) loses 75% of its luminescence intensity after 3 hours of illumination. Therefore, in general, the attachment of the chromophore moieties to the dendrimer structure and the presence of Ln^3+ can be advantageously used to provide and enhance the photostability of the probe.
The continuous illumination of G3P-(Alkyne)x-(Cyanine)y (x=22-24, y=8-10) with a light centered at 665 nm makes it possible to estimate the photostability of the dendrimers which appears to be rather weak. (FIG. 11).

A short description of a further data set: Absorption spectra. In kind it is physicochemical. Conditions: DMSO, low energy main band at 672 nm. The source says: For the sake of comparison, the absorption spectrum of compound 9 is multiplied by a factor corresponding to the number of chromophores attached to the branches of the dendrimer, for example, by 16 for (Ln8-) G3P-(Bodipy1)16 and by 32 for (Ln8-) G3P-(Bodipy1)32.
The absorption spectrum of the Bodipy chromophore (compound 9) measured in a DMSO solution has a broad band of up to 770 nm with a low energy main band at 672 nm (ϵ=2.1.10^5 M^−1 cm^−1), FIG. 3). […] On the other hand, the molar coefficient of absorption increases with the number of Bodipy chromophore units attached.
Absorption spectra of the Yb8-G3P-(TPP)32 complex were recorded in DMSO and in the DMSO/(Opti-MEM/FCS, 6: 94%) mixture (FIG. 13).

Data set [4] can be described thus: Absolute quantum yields (Q) in DMSO solution. The format is physicochemical. The source says:
The absolute quantum yields of the chromophore (compound 9) and dendrimers (Ln8-)G3P-(Bodipy1)n (n=16, 32; Ln=Yb^3+, Nd^3+) are summarized in Table 1. Significant decreases (6 and 3.4 times) in quantum emission efficiencies from the aza-BODIPY-COOH chromophoric moieties for the functionalized dendrimers, G3P-(aza-BODIPY)32 and G3P-(aza-BODIPY)16, respectively. […] On the other hand, the Q values are increased by 1.7 and 1.4 times for G3P-(Bodipy1)32 during the encapsulation of the lanthanide cations Yb^3+ and Nd^3+, respectively.

Data set [5] deals with HeLa cells. Briefly: Cellular internalization by flow cytometry (NaN3 or 4° C. inhibition). Conditions: 1.5 μM; for Cellular internalization, Active (percentage inhibited with NaN3): NaN3 treatment. In kind it is cell-based, human. How it is done: HeLa cells were incubated for 30 min with a 1.5 μM concentration solution of chromophores and dendrimers (Ln8-)G3P-(Bodipy1)n (n=16, 32; Ln=Yb^3+, Nd^3+) as control. In order to block the active and passive transport pathways, HeLa cells were treated with NaN3 (active internalization inhibitor) or pre-incubated at 4° C. for 30 min (inhibition of active and passive pathways) before incubation with the dendrimers.
Cytometry has been used to quantify cell internalization of dendrimers and to better understand signal intensity differences observed in confocal microscopy. The mechanisms of passive (non-dependent energy) and active (energy dependent) internalization of cells have been studied. Active transport was inhibited with sodium azide (NaN3), while incubation at 4° C. inhibited active and passive transport pathways by increasing the plasma membrane stiffness of HeLa cells (S. Vranic, N. Boggetto, V. Contremoulins, S. Mornet, N. Reinhardt, F. Marano, A. Baeza-Squiban, S. Boland, Deciphering the mechanisms of cellular uptake of nanoparticles by accurate evaluation of internalization for cytometry, Particle and Fiber Toxicology, 10 (2013) 1-16).
However, for both types of dendrimers, internalization is consistently higher for those containing Yb^3+ than for those containing Nd^3+. […] For the chromophore compound 9, a relatively strong emission signal was observed and corresponding to 65% internalization of Yb8G3P-(Bodipy1)16. […] Dendrimers enter cells through active and passive transport pathways (FIG. 8). The relative percentages of active or passive internalization vary according to the number of Bodipy chromophore and the presence of Ln^3+. […] However, further studies are needed to clarify the exact mechanisms of active transportation. […]

On to `COc1ccc(-c2cc(-c3ccccc3)n(B(F)F)c2/N=C2\N=C(c3ccccc3)C=C2c2ccc(OCC(=O)O)cc2)cc1` [Compound 9, (Z)-2-(4-(2((1-(difluoroboryl)-3-(4-methoxyphenyl)-5-phenyl-1H-pyrrol-2-yl)imino)-5-phenyl-2H-pyrrol-3-yl)phenoxy)acetic acid], for which, in the data set on HeLa cells [1], the cell viability was about 100%. The “intracellular emission signal intensity (confocal)” value in the data set with HeLa cells [2] is given as “signal of lower intensity”. Also, in data set [3], the “decrease of initial luminescence intensity” value was 75%. For the same molecule, the “molar absorption coefficient ϵ” value in the data set “Absorption spectra” is recorded as 2.1.10^5 M^−1 cm^−1. Besides, the “quantum yield ratio versus Yb8-G3P-(aza-BODIPY)16” value in data set [4] is 3.4 times. For the same molecule, the “Q (%) quantum yield” value in data set [4] (10 μM in DMSO, room temperature, excitation 650 nm, emission collected 660 to 850 nm) is listed as 8.04(8) %. Further, the “Cellular internalization, Passive” value in the data set on HeLa cells [5] (difference between internalization inhibited at 4° C. and inhibited with sodium azide) is on record as 81 ± 1%. In addition, the “internalization relative to Yb8G3P-(Bodipy1)16” value in the data set on HeLa cells [5] (30 min incubation) was 65%. Also, the “Cellular internalization, Active (percentage inhibited with NaN3)” value is recorded as 19% with HeLa cells [5] (30 min incubation) and 18 ± 4% with HeLa cells [5] (30 min incubation, listed as Composé{acute over ( )}9, 1.5 µM).
